Laboratory results published in ChEMBL document CHEMBL5512673, “Secondary Structure Stabilization of Macrocyclic Antimicrobial Peptides via Cross-Link Swapping” (J Med Chem, 2024).
≈ marks a conversion by molar mass, not a printed value. Calls of active or inactive are those of the source. The rule behind the calls is not given here. Bridge positions count the residues as written; N and C are the ends. Square brackets hold non-standard residues; d marks the D form. Peptide text beside a SMILES is read from it. Dab = NCC[C@H](N)C(=O)O; Dap = NC[C@H](N)C(=O)O

Columns and labels:
Escherichia coli [1] = experiment: Antibacterial activity against Escherichia coli assessed as inhibition of bacterial growth incubated for 24 hrs by nutrient agar plate method; type: functional
Bacillus subtilis [2] = experiment: Antibacterial activity against Bacillus subtilis assessed as inhibition of bacterial growth incubated for 24 hrs by nutrient agar plate method; type: functional
[3] = system: Staphylococcus epidermidis; experiment: Antibacterial activity against Staphylococcus epidermidis assessed as inhibition of bacterial growth incubated for 24 hrs by nutrient agar plate method; type: functional
RAW264.7 [4] = experiment: Cytotoxicity against mouse RAW264.7 cells assessed as reduction in cell viability at 100 uM incubated for 24 hrs by MTS assay; type: toxicity, cell-based; conditions: raw264.7, 24 h
Escherichia coli [5] = experiment: Antibacterial activity against Escherichia coli assessed as reduction in bacterial cell viability incubated for 24 hrs by nutrient agar plate method; type: functional, organism-based
Bacillus subtilis [6] = experiment: Antibacterial activity against Bacillus subtilis assessed as reduction in bacterial cell viability incubated for 24 hrs by nutrient agar plate method; type: functional, organism-based
[7] = system: Staphylococcus epidermidis; experiment: Antibacterial activity against Staphylococcus epidermidis assessed as reduction in bacterial cell viability incubated for 24 hrs by nutrient agar plate method; type: functional, organism-based
RAW264.7 [8] = experiment: Upregulation of IL-1beta production in mouse RAW264.7 cells at 50 uM incubated for 24 hrs by ELISA; type: functional, cell-based
RAW264.7 [9] = experiment: Effect on IL-10 release in mouse RAW264.7 cells at 50 uM incubated for 24 hrs by ELISA; type: functional, cell-based
RAW264.7 [10] = experiment: Anti-inflammatory activity in mouse RAW264.7 cells assessed as reduction in LPS-induced IL-1beta production at 50 uM incubated for 24 hrs by ELISA; type: functional, cell-based
RAW264.7 [11] = experiment: Anti-inflammatory activity in mouse RAW264.7 cells assessed as reduction in LPS-induced IL-10 production at 50 uM incubated for 24 hrs by ELISA; type: functional, cell-based
[12] = Aggregation property of compound in aqueous solution assessed as critical micelle concentration by dynamic light scattering analysis; type: physicochemical; conditions: buffer
Escherichia coli [13] = experiment: Antibacterial activity against Escherichia coli NEB 5alpha assessed as aggregation of bacteria into flakes at 2 to 50 uM incubated for 4 hrs by bacterial flocculation assay; type: functional, organism-based; conditions: dose 2-50 µM
Bacillus subtilis [14] = experiment: Antibacterial activity against Bacillus subtilis ATCC 6051 assessed as aggregation of bacteria into flakes at 2 to 50 uM incubated for 4 hrs by bacterial flocculation assay; type: functional, organism-based; conditions: dose 2-50 µM
Micrococcus luteus [15] = experiment: Antibacterial activity against Micrococcus luteus assessed as inhibition of bacterial growth incubated for 24 hrs by nutrient agar plate method; type: functional
Micrococcus luteus [16] = experiment: Antibacterial activity against Micrococcus luteus assessed as reduction in bacterial cell viability incubated for 24 hrs by nutrient agar plate method; type: functional, organism-based
Trypsin = Trypsin (Homo sapiens, UniProt P07477+P07478+P35030); experiment: Stability of compound in PBS at […] assessed as trypsin (unknown origin)-mediated drug degradation measured after 3 to 60 mins using TAMRA-labelled compound by HPLC analysis; type: ADME, protein assay; conditions: buffer, time 3-60 min

Structure (SMILES) | MIC (Escherichia coli [1]) [µM] | MIC (Bacillus subtilis [2]) [µM] | MIC [3] [µM] | CMC [12] [µM] | MIC (Micrococcus luteus [15]) [µM] | Stability (Trypsin) | Activity (RAW264.7 [4]) | IC50 (Escherichia coli [5]) [µM] | IC50 (Bacillus subtilis [6]) [µM] | IC50 [7] [µM] | Activity (RAW264.7 [8]) | Activity (RAW264.7 [9]) | Activity (RAW264.7 [10]) | Activity (RAW264.7 [11]) | Activity (Escherichia coli [13]) | Activity (Bacillus subtilis [14]) | IC50 (Micrococcus luteus [16]) [µM]
CC[C@H](C)[C@@H]1NC(=O)[C@H](CCCNC(=N)N)NC(=O)[C@H](Cc2ccccc2)NC(=O)[C@H](CCCCN)NC(=O)[C@H](Cc2ccccc2)NC(=O)[C@H](CCCNC(=N)N)NC(=O)[C@@H](N)CCC(=O)NCC[C@@H](C(N)=O)NC(=O)[C@H]([C@@H](C)CC)NC(=O)[C@H](C(C)C)NC1=O (H-ERFKFRIVI[Dab]-NH2; lactam 1-10) | 40 (≈ 51.5 µg/mL) | 60 (≈ 77.3 µg/mL) | 20 (≈ 25.8 µg/mL) | > 100 | 80 (≈ 103 µg/mL) |  | Non-Toxic | 8.5 | 15 | 3.5 | Active | Active | inactive | inactive | Active | Active | 11.1
CC[C@H](C)[C@@H]1NC(=O)[C@H](CCCNC(=N)N)NC(=O)[C@H](Cc2ccccc2)NC(=O)[C@H](CCCCN)NC(=O)[C@H](Cc2ccccc2)NC(=O)[C@H](CCCNC(=N)N)NC(=O)[C@@H](N)CCNC(=O)CC[C@@H](C(N)=O)NC(=O)[C@H]([C@@H](C)CC)NC(=O)[C@H](C(C)C)NC1=O (H-[Dab]RFKFRIVIE-NH2; lactam 1-10) | 40 (≈ 51.5 µg/mL) | 60 (≈ 77.3 µg/mL) | 20 (≈ 25.8 µg/mL) | > 100 | 80 (≈ 103 µg/mL) |  | Non-Toxic | 10.7 | 15.4 | 3.9 | Active | Active | inactive | inactive | Active | Active | 18
CC1(C)S[C@@H]2[C@H](NC(=O)[C@H](N)c3ccccc3)C(=O)N2[C@H]1C(=O)O [AMPICILLIN] | 12.5 (≈ 4.37 µg/mL) | 25 (≈ 8.74 µg/mL) | 50 (≈ 17.5 µg/mL) |  | 3.1 (≈ 1.08 µg/mL) |  |  | 1.5 | 1 | 8.5 |  |  |  |  |  |  | 1.1
CC[C@H](C)[C@@H]1NC(=O)[C@H](CCCNC(=N)N)NC(=O)[C@H](Cc2ccccc2)NC(=O)[C@H](CCCCN)NC(=O)[C@H](Cc2ccccc2)NC(=O)[C@H](CCCNC(=N)N)NC(=O)[C@@H](N)CSSC[C@@H](C(N)=O)NC(=O)[C@H]([C@@H](C)CC)NC(=O)[C@H](C(C)C)NC1=O (H-CRFKFRIVIC-NH2; disulfide 1-10) | 80 (≈ 103 µg/mL) | 100 (≈ 128 µg/mL) | 50 (≈ 64.1 µg/mL) | 4.5 |  |  | Non-Toxic | 32.2 | 461 | 8.5 | Active | Active | Active | Active | Active | Active | 

Now from value to compound, other results behind:

MIC (Escherichia coli [1]) [µM] | MIC (Bacillus subtilis [2]) [µM] | MIC [3] [µM] | CMC [12] [µM] | MIC (Micrococcus luteus [15]) [µM] | Stability (Trypsin) | Structure (SMILES) | Activity (RAW264.7 [4]) | IC50 (Escherichia coli [5]) [µM] | IC50 (Bacillus subtilis [6]) [µM] | IC50 [7] [µM] | Activity (RAW264.7 [8]) | Activity (RAW264.7 [9]) | Activity (RAW264.7 [10]) | Activity (RAW264.7 [11]) | Activity (Escherichia coli [13]) | Activity (Bacillus subtilis [14]) | IC50 (Micrococcus luteus [16]) [µM]
80 (≈ 102 µg/mL) | 100 (≈ 127 µg/mL) | 40 (≈ 51 µg/mL) | 10.8 |  |  | CC[C@H](C)[C@@H]1NC(=O)[C@H](CCCNC(=N)N)NC(=O)[C@H](Cc2ccccc2)NC(=O)[C@H](CCCCN)NC(=O)[C@H](Cc2ccccc2)NC(=O)[C@H](CCCNC(=N)N)NC(=O)[C@@H](N)CCC(=O)NC[C@@H](C(N)=O)NC(=O)[C@H]([C@@H](C)CC)NC(=O)[C@H](C(C)C)NC1=O (H-ERFKFRIVI[Dap]-NH2; lactam 1-10) | Non-Toxic | 41.5 | 38.5 | 10.2 | Active | Active | Active | Active | Active | Active | 
 |  |  |  |  | Unstable | CN(C)c1ccc2c(-c3ccc(C(=O)N[C@@H](Cc4ccc(O)cc4)C(=O)NCC(=O)N[C@@H](CCCNC(=N)N)C(=O)N[C@@H](CCCCN)C(=O)N[C@@H](CCCCN)C(=O)N[C@@H](CCCNC(=N)N)C(=O)N[C@@H](CCCNC(=N)N)C(=O)N[C@@H](CCC(N)=O)C(=O)N[C@@H](CCCNC(=N)N)C(=O)N[C@@H](CCCNC(=N)N)C(=O)N[C@@H](CCCNC(=N)N)C(=O)O)cc3C(=O)[O-])c3ccc(=[N+](C)C)cc-3oc2c1 |  |  |  |  |  |  |  |  |  |  | 
100 (≈ 127 µg/mL) | 100 (≈ 127 µg/mL) | 40 (≈ 51 µg/mL) | 2.3 |  |  | CC[C@H](C)[C@@H]1NC(=O)[C@H](CCCNC(=N)N)NC(=O)[C@H](Cc2ccccc2)NC(=O)[C@H](CCCCN)NC(=O)[C@H](Cc2ccccc2)NC(=O)[C@H](CCCNC(=N)N)NC(=O)[C@@H](N)CNC(=O)CC[C@@H](C(N)=O)NC(=O)[C@H]([C@@H](C)CC)NC(=O)[C@H](C(C)C)NC1=O (H-[Dap]RFKFRIVIE-NH2; lactam 1-10) | Non-Toxic | 35.9 | 36.2 | 7.2 | Active | Active | Active | Active | Active | Active | 
